# Values joined by “and” are separate entries in the source; they are usually repeats but may differ in a detail not shown here. Equal entries are not always repeated.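 Protocol summary: plate cells (96-well), add compound at 5 concentrations, incubate 48 h, interpolate endpoints linearly. GI50 is the concentration that inhibits growth by half. The concentration for full growth arrest is given as TGI.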
# Assays:
# Test in all cases: inhibition of tumour cell growth, NCI panel, 48 h
# [1] = system: DMS 114 small cell lung
# [2] = system: LXFL 529 NSCLC
# [3] = system: NCI-H226 lung
# [4] = system: KM20L2 colon
# [5] = system: M19-MEL melanoma
# [6] = system: DLD-1 colon
# [7] = system: HL-60(TB) leukemia
# [8] = system: DMS 273 small cell lung
# [9] = system: HOP-18 NSCLC
smiles,measurement,setting,value
O=C(NC(=O)c1ccccc1[N+](=O)[O-])Nc1ccc(Oc2ncc(Br)cn2)c(Cl)c1,GI50,[1],0.00331 µM
same,GI50,[2],< 0.0224 µM
same,GI50,[3],< 0.0175 µM
same,TGI,[3],0.0292 µM and < 0.0313 µM
same,TGI,[4],0.059 µM
same,GI50,[5],< 0.0229 µM
same,GI50,[6],< 0.0201 µM
same,GI50,[7],0.0273 µM
same,TGI,[7],0.0336 µM and 0.0807 µM
same,TGI,[8],0.0212 µM
same,GI50,[9],> 100 µM
same,TGI,[9],> 100 µM
